Measured values: publication PMC11233931, “Remodeling tumor‐associated macrophage for anti‐cancer effects by rational design of irreversible inhibition of mitogen‐activated protein kinase‐activated protein kinase 2” (MedComm, 2024)

Experiments:
Experiment in all cases: Eurofins kinase selectivity profile against 380 other human recombinant kinases (Table S2)
Assay type in all cases: biochemical
[1] = biological target: T1, 380 human recombinant protein kinases (Homo sapiens, UniProt O00443); settings: PI3KC2α(h), read-out: Inhibition rate (%)
T1 construct: purchased Eurofins (Celle Lévescault)
T1 sequence (O00443 whole entry): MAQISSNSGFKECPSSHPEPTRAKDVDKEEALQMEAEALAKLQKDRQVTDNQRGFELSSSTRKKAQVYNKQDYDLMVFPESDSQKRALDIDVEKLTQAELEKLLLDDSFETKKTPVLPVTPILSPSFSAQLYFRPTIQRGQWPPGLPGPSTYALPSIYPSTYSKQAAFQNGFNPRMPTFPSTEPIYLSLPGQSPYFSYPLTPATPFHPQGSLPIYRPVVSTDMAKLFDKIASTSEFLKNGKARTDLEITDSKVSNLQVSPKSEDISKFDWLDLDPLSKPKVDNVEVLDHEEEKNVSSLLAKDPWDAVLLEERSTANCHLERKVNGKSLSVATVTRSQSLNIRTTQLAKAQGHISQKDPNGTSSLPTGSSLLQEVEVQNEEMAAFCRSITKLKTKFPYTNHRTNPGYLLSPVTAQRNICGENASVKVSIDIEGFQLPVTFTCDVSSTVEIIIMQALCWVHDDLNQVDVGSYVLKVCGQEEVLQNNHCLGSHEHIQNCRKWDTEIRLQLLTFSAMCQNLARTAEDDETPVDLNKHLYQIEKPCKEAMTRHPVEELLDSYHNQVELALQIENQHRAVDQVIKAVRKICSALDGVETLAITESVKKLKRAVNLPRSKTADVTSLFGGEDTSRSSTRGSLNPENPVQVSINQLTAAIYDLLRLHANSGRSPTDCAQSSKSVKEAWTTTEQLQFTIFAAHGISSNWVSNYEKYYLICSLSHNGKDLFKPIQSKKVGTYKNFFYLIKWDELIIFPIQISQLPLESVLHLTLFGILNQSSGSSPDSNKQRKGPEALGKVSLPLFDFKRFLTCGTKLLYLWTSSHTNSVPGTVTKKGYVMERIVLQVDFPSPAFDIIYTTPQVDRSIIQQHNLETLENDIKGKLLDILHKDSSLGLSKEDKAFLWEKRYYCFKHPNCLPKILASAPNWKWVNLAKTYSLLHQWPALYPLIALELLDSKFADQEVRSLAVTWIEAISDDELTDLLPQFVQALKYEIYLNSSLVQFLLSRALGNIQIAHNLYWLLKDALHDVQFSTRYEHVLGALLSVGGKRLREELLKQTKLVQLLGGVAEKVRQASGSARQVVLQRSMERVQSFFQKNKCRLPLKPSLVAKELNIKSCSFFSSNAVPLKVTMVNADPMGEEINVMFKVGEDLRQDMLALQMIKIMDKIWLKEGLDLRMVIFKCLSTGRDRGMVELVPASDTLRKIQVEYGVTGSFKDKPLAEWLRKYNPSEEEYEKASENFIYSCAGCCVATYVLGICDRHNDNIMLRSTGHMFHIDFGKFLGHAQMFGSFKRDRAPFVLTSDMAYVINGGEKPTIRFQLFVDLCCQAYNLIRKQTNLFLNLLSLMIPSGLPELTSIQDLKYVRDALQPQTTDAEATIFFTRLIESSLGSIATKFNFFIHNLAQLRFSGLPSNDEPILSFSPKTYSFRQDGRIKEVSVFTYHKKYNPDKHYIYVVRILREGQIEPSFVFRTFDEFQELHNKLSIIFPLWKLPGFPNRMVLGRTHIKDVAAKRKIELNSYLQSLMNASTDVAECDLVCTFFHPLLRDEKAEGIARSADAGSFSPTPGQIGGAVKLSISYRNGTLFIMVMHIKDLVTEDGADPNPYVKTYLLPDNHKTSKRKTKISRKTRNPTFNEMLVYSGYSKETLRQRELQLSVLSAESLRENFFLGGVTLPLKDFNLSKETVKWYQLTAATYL
How it was run: (§1)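 Off-target profiling: one compound assayed by a commercial provider over 380 recombinant human protein kinases at various concentrations.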

[2] = biological target: T2, 380 human recombinant protein kinases (Homo sapiens, UniProt O15146); settings: MuSK(h), read-out: Inhibition rate
T2 construct: purchased Eurofins (Celle Lévescault)
T2 sequence (O15146 24-869): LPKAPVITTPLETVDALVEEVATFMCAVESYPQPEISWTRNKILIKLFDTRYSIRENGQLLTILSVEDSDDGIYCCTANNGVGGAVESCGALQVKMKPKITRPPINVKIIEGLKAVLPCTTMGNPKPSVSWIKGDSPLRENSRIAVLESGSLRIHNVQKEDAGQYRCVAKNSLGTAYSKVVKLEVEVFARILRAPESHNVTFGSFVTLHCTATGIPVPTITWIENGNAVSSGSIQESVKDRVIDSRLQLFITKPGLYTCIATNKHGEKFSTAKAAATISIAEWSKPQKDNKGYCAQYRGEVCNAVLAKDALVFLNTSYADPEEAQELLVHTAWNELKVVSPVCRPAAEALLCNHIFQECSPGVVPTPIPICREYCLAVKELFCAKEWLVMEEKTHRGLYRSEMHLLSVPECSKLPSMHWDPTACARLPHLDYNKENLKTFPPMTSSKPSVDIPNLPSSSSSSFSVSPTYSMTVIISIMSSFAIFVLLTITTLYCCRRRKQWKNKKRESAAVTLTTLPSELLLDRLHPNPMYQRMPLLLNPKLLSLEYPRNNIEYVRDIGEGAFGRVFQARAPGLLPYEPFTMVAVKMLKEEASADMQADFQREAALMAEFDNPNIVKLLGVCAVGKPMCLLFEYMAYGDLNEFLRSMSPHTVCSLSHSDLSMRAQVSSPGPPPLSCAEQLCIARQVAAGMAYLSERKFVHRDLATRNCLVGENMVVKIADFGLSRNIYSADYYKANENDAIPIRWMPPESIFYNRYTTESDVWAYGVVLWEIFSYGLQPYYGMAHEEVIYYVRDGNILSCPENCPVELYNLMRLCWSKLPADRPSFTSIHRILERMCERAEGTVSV
How it was run: as §1

[3] = biological target: T3, 380 human recombinant protein kinases (Homo sapiens, UniProt P08581); settings: Met(h), read-out: Inhibition rate
T3 construct: purchased Eurofins (Celle Lévescault)
T3 sequence (P08581 25-1390): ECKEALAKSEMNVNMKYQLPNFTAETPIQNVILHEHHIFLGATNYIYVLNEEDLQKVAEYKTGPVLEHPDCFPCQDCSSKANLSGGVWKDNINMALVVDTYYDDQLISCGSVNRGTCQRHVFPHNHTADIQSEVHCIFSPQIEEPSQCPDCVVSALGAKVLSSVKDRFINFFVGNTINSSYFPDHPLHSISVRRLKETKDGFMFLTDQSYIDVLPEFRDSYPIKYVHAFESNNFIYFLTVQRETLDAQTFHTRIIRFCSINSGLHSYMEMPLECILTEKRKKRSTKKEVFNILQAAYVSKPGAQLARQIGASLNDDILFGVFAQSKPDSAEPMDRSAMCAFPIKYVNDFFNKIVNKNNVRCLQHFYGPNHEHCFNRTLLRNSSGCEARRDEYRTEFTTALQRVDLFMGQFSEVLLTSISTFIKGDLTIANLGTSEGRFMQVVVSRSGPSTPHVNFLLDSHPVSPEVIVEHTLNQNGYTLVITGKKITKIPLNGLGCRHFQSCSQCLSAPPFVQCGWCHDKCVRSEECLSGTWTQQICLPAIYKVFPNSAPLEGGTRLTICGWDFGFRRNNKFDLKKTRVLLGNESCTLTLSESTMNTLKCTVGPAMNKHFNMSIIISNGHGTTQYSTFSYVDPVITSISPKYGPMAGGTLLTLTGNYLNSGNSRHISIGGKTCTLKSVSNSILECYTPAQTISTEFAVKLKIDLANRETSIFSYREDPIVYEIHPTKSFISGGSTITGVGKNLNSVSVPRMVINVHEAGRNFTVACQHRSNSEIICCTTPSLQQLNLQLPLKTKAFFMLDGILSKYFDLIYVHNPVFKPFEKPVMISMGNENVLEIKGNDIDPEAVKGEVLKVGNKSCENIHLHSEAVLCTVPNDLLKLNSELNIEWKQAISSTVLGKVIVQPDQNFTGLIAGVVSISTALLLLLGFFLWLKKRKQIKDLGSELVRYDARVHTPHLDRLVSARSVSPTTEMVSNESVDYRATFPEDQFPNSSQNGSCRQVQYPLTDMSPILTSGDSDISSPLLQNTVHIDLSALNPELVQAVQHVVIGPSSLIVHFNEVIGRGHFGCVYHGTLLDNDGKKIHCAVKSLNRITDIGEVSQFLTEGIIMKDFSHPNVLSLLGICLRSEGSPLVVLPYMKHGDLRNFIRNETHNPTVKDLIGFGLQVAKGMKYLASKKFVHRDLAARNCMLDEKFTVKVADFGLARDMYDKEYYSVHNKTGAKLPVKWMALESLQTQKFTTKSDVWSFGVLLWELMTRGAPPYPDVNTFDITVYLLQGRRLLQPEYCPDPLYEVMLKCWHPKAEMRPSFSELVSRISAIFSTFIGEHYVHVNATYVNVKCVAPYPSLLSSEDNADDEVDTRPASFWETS
How it was run: as §1

[4] = biological target: T4, 380 human recombinant protein kinases (Homo sapiens, UniProt P17252); settings: PKCα(h), read-out: Inhibition rate
T4 construct: purchased Eurofins (Celle Lévescault)
How it was run: as §1

[5] = biological target: T5, 380 human recombinant protein kinases (Homo sapiens, UniProt P31751); settings: PKBβ(h), read-out: Inhibition rate
T5 construct: purchased Eurofins (Celle Lévescault)
T5 sequence (P31751 whole entry): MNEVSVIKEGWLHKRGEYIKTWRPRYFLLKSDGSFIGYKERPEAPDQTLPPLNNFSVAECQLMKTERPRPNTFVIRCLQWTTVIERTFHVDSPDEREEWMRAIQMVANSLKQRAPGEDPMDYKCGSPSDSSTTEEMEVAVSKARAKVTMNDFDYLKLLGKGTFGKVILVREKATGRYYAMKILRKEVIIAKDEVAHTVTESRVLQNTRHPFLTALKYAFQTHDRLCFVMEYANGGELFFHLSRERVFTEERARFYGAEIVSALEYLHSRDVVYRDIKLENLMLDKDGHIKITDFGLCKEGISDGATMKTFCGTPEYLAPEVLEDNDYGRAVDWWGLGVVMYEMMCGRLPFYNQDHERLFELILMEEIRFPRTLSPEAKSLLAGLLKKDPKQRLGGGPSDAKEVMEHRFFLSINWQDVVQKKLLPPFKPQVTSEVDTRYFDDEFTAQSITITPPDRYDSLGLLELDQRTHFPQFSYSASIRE
How it was run: as §1

[6] = biological target: T6, 380 human recombinant protein kinases (Homo sapiens, UniProt P50750); settings: CDK9/cyclin T1(h), read-out: Inhibition rate
T6 construct: purchased Eurofins (Celle Lévescault)
T6 sequence (P50750 whole entry): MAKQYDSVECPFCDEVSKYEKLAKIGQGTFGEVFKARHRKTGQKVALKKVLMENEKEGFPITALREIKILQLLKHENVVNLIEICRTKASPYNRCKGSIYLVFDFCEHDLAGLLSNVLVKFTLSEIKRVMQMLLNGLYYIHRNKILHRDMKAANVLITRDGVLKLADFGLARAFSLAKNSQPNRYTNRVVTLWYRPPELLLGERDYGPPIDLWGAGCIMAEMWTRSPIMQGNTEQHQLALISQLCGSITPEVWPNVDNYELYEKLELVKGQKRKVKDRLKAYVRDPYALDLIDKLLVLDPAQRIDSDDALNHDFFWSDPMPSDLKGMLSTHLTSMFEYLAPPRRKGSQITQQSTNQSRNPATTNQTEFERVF
How it was run: as §1

[7] = biological target: T7, 380 human recombinant protein kinases (Homo sapiens, UniProt P54646); settings: AMPKα2(h), read-out: Inhibition rate
T7 construct: purchased Eurofins (Celle Lévescault)
How it was run: as §1

[8] = biological target: T8, 380 human recombinant protein kinases (Homo sapiens, UniProt Q6SA08); settings: TSSK4(h), read-out: Inhibition rate (%)
T8 construct: purchased Eurofins (Celle Lévescault)
T8 sequence (Q6SA08 1-328): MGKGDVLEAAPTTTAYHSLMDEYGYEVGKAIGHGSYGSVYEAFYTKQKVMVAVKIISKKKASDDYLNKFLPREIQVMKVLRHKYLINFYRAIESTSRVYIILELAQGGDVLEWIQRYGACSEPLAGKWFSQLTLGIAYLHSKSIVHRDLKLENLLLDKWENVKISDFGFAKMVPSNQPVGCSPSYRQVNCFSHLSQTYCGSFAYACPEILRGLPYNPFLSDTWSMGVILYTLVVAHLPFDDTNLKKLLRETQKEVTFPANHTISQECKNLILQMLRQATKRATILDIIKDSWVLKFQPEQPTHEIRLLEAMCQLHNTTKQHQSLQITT
How it was run: as §1

[9] = biological target: T9, 380 human recombinant protein kinases (Homo sapiens, UniProt Q8WTQ7); settings: GRK7(h), read-out: Inhibition rate
T9 construct: purchased Eurofins (Celle Lévescault)
T9 sequence (Q8WTQ7 1-553): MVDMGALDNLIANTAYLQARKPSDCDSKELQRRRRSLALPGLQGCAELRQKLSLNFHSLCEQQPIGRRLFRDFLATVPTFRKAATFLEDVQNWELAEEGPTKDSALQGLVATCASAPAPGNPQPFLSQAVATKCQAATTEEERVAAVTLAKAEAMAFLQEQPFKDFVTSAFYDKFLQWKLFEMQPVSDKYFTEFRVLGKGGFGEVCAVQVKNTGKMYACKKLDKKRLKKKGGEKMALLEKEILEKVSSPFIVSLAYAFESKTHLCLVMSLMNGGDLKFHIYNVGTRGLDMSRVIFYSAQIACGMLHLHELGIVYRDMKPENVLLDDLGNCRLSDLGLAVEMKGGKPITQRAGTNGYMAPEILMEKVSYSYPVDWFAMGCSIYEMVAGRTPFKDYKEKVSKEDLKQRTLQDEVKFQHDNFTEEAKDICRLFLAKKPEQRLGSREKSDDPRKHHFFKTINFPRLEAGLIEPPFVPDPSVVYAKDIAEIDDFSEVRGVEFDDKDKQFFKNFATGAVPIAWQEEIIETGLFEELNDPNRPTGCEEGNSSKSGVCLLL
How it was run: as §1

Question: What does the source list for `C=CC(=O)Nc1cc(-c2cc(-c3cc4c([nH]3)CCNC4=O)ccn2)ccc1OC(F)(F)F` [compound 11]?
Answer: inhibition at 0.01 µM ([1]; 10 nM): -4%; inhibition at 0.1 µM ([1]; 100 nM): -2%; inhibition at 1 µM ([1]; 1000 nM): -5%; inhibition at 0.01 µM ([2]; 10 nM): 7%; inhibition at 0.1 µM ([2]; 100 nM): 7%; inhibition at 1 µM ([2]; 1000 nM): 7%; inhibition at 0.01 µM ([3]; 10 nM): 6%; inhibition at 0.1 µM ([3]; 100 nM): 21%; inhibition at 1 µM ([3]; 1000 nM): 62%; inhibition at 0.01 µM ([4]; 10 nM): 5%; inhibition at 0.1 µM ([4]; 100 nM): 14%; inhibition at 1 µM ([4]; 1000 nM): 6%; inhibition at 0.01 µM ([5]; 10 nM): 1%; inhibition at 0.1 µM ([5]; 100 nM): 3%; inhibition at 1 µM ([5]; 1000 nM): 0%; inhibition at 0.01 µM ([6]; 10 nM): 8%; inhibition at 0.1 µM ([6]; 100 nM): 2%; inhibition at 1 µM ([6]; 1000 nM): 6%; inhibition at 0.01 µM ([7]; 10 nM): 3%; inhibition at 0.1 µM ([7]; 100 nM): 11%; inhibition at 1 µM ([7]; 1000 nM): 43%; inhibition at 0.01 µM ([8]; 10 nM): 3%; inhibition at 0.1 µM ([8]; 100 nM): 5%; inhibition at 1 µM ([8]; 1000 nM): 2%; inhibition at 0.01 µM ([9]; 10 nM): -4%; inhibition at 0.1 µM ([9]; 100 nM): -6%; inhibition at 1 µM ([9]; 1000 nM): 2%
